Assay [1] deals with T1, Phosphatidylinositol 3-kinase C2 domain-containing subunit gamma (Homo sapiens) (UniProt O75747).
T1 sequence (whole entry): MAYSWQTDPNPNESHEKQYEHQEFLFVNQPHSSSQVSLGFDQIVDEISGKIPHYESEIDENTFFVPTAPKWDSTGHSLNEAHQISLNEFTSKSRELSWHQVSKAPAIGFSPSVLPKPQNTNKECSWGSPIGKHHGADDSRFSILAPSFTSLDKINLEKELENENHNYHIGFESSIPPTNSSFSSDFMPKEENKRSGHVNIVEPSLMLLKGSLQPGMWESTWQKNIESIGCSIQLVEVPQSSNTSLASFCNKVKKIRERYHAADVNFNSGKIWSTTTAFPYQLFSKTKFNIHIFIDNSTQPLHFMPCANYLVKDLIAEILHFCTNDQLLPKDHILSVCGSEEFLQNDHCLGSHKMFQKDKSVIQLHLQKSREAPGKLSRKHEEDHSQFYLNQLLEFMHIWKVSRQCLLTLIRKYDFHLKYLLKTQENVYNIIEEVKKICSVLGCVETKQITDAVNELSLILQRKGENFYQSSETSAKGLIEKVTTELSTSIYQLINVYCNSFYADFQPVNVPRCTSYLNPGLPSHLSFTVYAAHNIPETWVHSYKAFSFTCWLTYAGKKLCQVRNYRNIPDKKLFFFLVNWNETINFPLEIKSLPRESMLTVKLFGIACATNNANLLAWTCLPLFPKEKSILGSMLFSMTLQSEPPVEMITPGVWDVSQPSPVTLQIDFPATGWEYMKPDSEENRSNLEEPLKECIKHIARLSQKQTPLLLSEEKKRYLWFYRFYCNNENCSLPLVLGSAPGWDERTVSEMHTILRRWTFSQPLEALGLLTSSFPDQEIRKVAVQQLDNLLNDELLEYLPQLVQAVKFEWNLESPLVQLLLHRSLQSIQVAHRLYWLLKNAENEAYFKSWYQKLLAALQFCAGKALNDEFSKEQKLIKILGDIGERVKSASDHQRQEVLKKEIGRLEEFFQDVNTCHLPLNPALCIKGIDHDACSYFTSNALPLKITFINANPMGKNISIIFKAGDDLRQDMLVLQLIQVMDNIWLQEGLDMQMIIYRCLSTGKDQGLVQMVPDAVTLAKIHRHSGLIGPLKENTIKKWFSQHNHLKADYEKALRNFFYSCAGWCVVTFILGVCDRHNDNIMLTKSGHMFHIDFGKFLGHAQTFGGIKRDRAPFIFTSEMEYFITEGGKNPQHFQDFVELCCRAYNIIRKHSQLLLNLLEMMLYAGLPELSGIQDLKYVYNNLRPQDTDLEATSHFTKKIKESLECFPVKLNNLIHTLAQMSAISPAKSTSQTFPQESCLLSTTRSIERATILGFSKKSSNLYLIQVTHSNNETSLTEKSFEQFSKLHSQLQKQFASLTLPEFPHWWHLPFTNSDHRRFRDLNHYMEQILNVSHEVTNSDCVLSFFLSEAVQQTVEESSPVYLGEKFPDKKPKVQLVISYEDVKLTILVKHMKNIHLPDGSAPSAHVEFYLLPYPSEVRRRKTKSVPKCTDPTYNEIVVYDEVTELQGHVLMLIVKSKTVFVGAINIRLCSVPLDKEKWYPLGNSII
As to the kind of experiment: Selectivity interaction (Ambit KINOMEscan and KiNATiv profiling in Jurkat cells) EUB0000090b PIK3C2G. The settings on record: at 1 µM. Format: cell-based.

The target in assay [2] is T1, Phosphatidylinositol 3-kinase C2 domain-containing subunit gamma (Homo sapiens). The assay can be described thus: Selectivity interaction (KinomeScan (DiscoverX)) EUB0001619a PIK3C2G. The settings on record: at 1 µM.
In assay [3] the target is Ribosomal protein S6 kinase alpha-3 (Homo sapiens, UniProt P51812). The assay can be described thus: Selectivity interaction (KinomeScan (DiscoverX)) EUB0001619a RPS6KA3. The note with it: at 1 µM.
Sequence of Ribosomal protein S6 kinase alpha-3 (P51812 whole entry): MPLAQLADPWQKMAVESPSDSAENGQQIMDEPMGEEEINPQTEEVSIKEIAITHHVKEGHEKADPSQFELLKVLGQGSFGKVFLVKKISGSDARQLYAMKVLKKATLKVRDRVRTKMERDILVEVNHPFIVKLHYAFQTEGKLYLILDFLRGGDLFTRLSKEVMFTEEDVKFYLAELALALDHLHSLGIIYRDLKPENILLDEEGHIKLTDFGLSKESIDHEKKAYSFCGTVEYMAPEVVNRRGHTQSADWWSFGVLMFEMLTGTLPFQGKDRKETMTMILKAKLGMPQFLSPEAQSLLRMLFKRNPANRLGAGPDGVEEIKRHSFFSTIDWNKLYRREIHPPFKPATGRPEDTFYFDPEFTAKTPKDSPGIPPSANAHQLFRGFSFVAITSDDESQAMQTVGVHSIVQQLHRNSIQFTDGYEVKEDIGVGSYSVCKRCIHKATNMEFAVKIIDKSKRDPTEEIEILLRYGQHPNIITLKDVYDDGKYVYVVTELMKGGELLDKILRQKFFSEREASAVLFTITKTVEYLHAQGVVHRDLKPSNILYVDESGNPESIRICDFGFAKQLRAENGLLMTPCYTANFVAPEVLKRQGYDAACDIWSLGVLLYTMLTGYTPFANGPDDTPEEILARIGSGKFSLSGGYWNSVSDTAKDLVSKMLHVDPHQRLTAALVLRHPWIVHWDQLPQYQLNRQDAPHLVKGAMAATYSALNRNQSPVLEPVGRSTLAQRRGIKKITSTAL
Assay [4] has as its target MAP kinase-activated protein kinase 5 (Homo sapiens, UniProt Q8IW41). As to the kind of experiment: Selectivity interaction (Kinase panel (33PanQinase(R) Activity Assay)) EUB0000877a MAPKAPK5.
In assay [5] the target is T2, Mitogen-activated protein kinase 12 (Homo sapiens) (UniProt P53778).
T2 sequence (whole entry): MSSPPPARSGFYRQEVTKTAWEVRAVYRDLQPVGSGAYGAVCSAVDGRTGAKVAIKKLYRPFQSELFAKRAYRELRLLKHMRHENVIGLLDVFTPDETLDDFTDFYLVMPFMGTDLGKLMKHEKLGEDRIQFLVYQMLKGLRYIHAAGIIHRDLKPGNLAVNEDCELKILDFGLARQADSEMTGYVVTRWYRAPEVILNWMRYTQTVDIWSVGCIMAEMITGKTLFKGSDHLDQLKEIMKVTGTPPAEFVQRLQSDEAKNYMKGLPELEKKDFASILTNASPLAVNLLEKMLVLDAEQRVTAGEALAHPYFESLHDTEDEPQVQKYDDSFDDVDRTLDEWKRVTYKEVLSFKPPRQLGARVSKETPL
As to the kind of experiment: Selectivity interaction (Kinase screening (Upstate/Millipore)) EUB0000604a MAPK12.

For assay [6], the target named is PAS domain-containing serine/threonine-protein kinase (Homo sapiens) (UniProt Q96RG2). As to the kind of experiment: Selectivity interaction (ProQinase) EUB0000171b PASK.
Sequence of PAS domain-containing serine/threonine-protein kinase (Homo sapiens) (Q96RG2 whole entry, the tested form may be a part): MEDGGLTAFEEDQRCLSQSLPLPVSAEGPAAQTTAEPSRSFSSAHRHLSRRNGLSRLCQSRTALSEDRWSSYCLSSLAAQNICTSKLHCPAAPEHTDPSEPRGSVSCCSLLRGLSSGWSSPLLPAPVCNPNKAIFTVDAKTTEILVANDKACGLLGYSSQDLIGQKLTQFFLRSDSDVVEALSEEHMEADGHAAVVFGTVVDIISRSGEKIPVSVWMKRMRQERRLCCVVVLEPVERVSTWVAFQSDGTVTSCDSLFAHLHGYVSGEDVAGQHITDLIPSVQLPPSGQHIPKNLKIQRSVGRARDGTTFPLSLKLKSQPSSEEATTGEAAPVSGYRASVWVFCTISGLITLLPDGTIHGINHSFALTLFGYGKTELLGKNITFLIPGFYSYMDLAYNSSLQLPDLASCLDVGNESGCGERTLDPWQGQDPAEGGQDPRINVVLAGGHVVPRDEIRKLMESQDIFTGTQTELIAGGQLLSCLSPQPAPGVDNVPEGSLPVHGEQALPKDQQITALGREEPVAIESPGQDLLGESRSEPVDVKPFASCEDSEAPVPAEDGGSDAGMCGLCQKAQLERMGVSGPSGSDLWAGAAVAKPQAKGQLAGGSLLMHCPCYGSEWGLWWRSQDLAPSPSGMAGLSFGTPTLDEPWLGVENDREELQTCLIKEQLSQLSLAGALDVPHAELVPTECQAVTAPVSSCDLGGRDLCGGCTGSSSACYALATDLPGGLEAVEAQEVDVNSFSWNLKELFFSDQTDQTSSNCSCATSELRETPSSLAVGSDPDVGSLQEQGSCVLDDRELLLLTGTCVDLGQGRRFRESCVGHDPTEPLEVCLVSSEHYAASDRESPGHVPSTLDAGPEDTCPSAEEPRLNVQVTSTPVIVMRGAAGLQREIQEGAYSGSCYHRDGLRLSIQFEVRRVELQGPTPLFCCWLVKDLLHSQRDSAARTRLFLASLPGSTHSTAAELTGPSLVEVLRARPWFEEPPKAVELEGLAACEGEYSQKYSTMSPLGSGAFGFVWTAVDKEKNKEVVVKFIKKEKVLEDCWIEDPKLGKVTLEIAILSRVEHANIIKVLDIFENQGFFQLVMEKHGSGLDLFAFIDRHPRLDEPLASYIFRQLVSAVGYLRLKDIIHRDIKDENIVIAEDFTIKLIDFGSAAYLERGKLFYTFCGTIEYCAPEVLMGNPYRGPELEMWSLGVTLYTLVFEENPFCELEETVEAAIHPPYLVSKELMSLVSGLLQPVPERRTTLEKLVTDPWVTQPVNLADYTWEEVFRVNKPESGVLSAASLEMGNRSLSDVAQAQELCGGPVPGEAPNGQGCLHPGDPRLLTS
The target of assay [7] is Serine/threonine-protein kinase SIK1 (Homo sapiens) (UniProt P57059). The assay can be described thus: Selectivity interaction (KinomeScan (DiscoverX)) EUB0000595a SIK1. The settings on record: at 10 µM.
Sequence of Serine/threonine-protein kinase SIK1 (Homo sapiens) (P57059 whole entry): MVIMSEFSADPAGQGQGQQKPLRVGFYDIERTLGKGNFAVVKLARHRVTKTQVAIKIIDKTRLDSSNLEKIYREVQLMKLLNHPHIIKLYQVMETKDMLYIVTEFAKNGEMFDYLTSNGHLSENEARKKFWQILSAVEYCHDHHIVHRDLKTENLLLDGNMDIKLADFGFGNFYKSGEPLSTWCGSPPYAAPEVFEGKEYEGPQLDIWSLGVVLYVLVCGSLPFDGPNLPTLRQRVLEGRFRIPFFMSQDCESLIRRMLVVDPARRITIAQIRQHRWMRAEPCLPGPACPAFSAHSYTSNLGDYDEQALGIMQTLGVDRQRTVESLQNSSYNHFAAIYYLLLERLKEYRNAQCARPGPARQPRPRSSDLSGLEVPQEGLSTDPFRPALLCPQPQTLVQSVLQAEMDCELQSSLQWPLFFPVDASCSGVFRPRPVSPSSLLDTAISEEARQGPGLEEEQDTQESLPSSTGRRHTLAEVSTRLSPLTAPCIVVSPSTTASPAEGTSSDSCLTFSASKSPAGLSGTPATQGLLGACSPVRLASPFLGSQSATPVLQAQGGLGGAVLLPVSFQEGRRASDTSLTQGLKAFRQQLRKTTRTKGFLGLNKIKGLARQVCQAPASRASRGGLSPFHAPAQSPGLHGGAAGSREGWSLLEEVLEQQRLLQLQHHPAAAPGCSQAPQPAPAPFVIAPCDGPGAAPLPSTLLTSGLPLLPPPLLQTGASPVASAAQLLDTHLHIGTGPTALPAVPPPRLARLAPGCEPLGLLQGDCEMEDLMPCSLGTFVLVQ

This note sets out measurements from ChEMBL document CHEMBL5465560, “Selectivity Literature for EUbOPEN Chemogenomic Library” (2024).

Sequence of MAP kinase-activated protein kinase 5 (Q8IW41 whole entry): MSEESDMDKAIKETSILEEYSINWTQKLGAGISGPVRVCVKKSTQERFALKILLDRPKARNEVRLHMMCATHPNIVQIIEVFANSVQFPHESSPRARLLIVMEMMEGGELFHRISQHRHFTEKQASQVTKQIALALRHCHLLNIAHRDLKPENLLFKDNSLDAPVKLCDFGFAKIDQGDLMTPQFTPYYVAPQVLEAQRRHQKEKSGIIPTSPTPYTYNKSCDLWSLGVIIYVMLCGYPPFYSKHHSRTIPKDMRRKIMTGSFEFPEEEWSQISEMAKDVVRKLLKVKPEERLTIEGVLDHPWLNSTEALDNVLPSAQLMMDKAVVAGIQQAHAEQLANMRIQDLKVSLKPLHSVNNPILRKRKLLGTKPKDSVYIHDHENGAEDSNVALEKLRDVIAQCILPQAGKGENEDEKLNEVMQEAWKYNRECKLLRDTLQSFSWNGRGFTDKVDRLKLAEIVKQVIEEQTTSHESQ

On to `CN(C)C/C=C/C(=O)Nc1ccc(C(=O)N2CCCC(Nc3ncc(Cl)c(-c4c[nH]c5ccccc45)n3)C2)cc1` (stereo not drawn), for which the % of control in assay [1] was found to be 100%.

In the case of `N#Cc1cccc(-c2c[nH]c3ncnc(N4CCOCC4)c23)c1`, the % of control is 100% in assay [2] and 46% in assay [3].

The IC50 is the concentration that inhibits the measured activity by half. A higher IC50 goes with a need for much substance. In the case of `CCC(=O)N1CC[C@H](Nc2ncnc3c2CN(c2cnc(OC)c(C(F)(F)F)c2)CC3)C1` [LENIOLISIB], the IC50 in assay [4] was more than 10 µM.

Regarding `Cc1cnc(Nc2ccc(F)cc2Cl)nc1-c1c[nH]c(C(=O)N[C@H](CO)c2cccc(Cl)c2)c1`, in assay [5], the % of inhibition was determined as 56%.

For `C=CC(=O)Nc1cccc(C(=O)Nc2ccc(Nc3cc(-c4[nH]c(SC)nc4C)ccn3)cc2)c1`, the % of control in assay [6] (at 1 µM) came to 81%; in assay [6] (at 5 µM) it was 55%.

Consider `COCC(=O)NC/C=C/c1ccc2ncnc(Nc3ccc(Oc4ccc(C)nc4)c(C)c3)c2c1` [CP-724714], for which the % of control in assay [7] worked out at 100%.
